Like-named read-outs stand apart in the source and are kept apart here.
What was measured:
CYP 2C9 = CYP 2C9 (Homo sapiens, UniProt P11712); assay: CYP inhibition activity, 2C9; format: in vitro ADME
Description: Table 7. CYP inhibition activity. | column: IC50 (μM) / 2C9

CDK9 = CDK9 (Homo sapiens, UniProt P50750); assay: CDKs selectivity, CDK9; format: biochemical
Description: CDK7 and CDK9 with the same transcription function and CDK2 and CDK6 were selected to evaluate the selectivity of compound 12.

CDK8 = CDK8 (Homo sapiens, UniProt P49336); assay: Cellular thermal shift assay; format: cell-based; parameters: endogenous in cells; host or cells: HCT-116; conditions: HCT-116 cells, 5 μM, 6 h; DMSO 49 °C; western blot
Description: Here, in order to identify compound 12 could bind CDK8, HCT-116 cells, a CDK8 high expression cell line, were treated with 5 μM compound 12 and DMSO for 6 h, respectively. Cell suspension was divided into 11 PCR tubes equally, then the samples were heated from 37 to 67 °C at intervals of 3 °C and the results were analysed through western blot. […] However, CDK8 was degraded almost completely at 55 °C after treated with compound 12, which indicated compound 12 enhanced the thermal stability of CDK8 and compound 12 could bind CDK8.
(§1) CO2 atmosphere incubator for 24 h. Then, medium with compound at the concentrations of 100, 20, 4, 0.8, 0.016 μM was added into each well for another 48 h and incubated with CCK-8 (10 μL) for 2 h at 37 °C. The absorbance value at 450 nm was measured by the microplate reader (PerkinElmer Envision).
The kinase inhibition was detected by ADP-Glo™ Kinase Assay (Promega) using a black 384-well plate. […] The data was collected by the microplate reader. […]
were broken by ultr asonic treatment and centrifuged at 12000 rpm for 20 min. The supernatant was analyzed by western blot. […]
After co-treated with 2 μM biotinylated compound and compound 12 for 12 h, HCT-116 cells were lysed with NP-40 containing PMSF and centrifuged at 14000 r for 30 min at 4 °C. […] The samples were analyzed by western blot.

molm-13 = assay: Antiproliferative CCK-8 assay, molm-13; format: cell-based; conditions: Homo sapiens; molm-13, CCK-8 assay, means ± SD; read-out: GC50 (the source's name)
Description: (§2) Compounds12, 13 and 30 were selected for further cell activity assessments based on the enzymatic activity assessment results. molm-13 and MV4-11(acute myeloid lineage leukaemia cells), MGC-803 (gastric cancer cell), MDA-MB-231(breast cancer cell), A375 (melanoma cell), A549 (lung cancer cell), HCT-116, SW-480 and HT-29 (colorectal cancer cells) were selected to evaluate antitumor activity in vitro, GES-1 (gastric mucosal epithelial cell) was selected to evaluate toxicity in vitro.
as §1, with “Envision). […]” for “Envision).”

CYP 2C19 = CYP 2C19 (Homo sapiens, UniProt P33261); assay: CYP inhibition activity, 2C19; format: in vitro ADME
Description: Table 7. CYP inhibition activity. | column: IC50 (μM) / 2C19

[1] = Caco-2 permeability determination; format: in vitro ADME; conditions: human
MGC-803 = assay: Antiproliferative CCK-8 assay, MGC-803; format: cell-based; conditions: Homo sapiens; MGC-803, CCK-8 assay, means ± SD; read-out: GC50 (the source's name)
Description: as §2
as §1, with “Envision). […]” for “Envision).”

C57BL/6 mice = assay: Acute toxicity study; format: in vivo; conditions: 1000 mg/kg by gastric tube
Description: The safety of compound 12 in vivo was evaluated through an acute toxicity study on C57BL/6 mice. The compound 12 was administered by gastric tube at a dose of 1000 mg/kg. The normal group was given the same amount of normal saline. […] Finally, the mice were anaesthetised and sacrificed, and the main organs such as heart, liver, spleen, lung and kidney were detected through pathological section.

A375 = assay: Antiproliferative CCK-8 assay, A375; format: cell-based; conditions: Homo sapiens, A-375; A375, CCK-8 assay, means ± SD; read-out: GC50 (the source's name)
Description: as §2
as §1, with “Envision). […]” for “Envision).”

CYP3A4/5 = assay: CYP inhibition activity, 3A4/5 (M); format: in vitro ADME; conditions: human; CYP 3A4/5 (M)
Description: Table 7. CYP inhibition activity. | column: IC50 (μM) / 3A4/5 (M)

A549 = assay: Antiproliferative CCK-8 assay, A549; format: cell-based; conditions: Homo sapiens; A549, CCK-8 assay, means ± SD; read-out: GC50 (the source's name)
Description: as §2
as §1, with “Envision). […]” for “Envision).”

CYP 2C19, sequence (P33261 whole entry): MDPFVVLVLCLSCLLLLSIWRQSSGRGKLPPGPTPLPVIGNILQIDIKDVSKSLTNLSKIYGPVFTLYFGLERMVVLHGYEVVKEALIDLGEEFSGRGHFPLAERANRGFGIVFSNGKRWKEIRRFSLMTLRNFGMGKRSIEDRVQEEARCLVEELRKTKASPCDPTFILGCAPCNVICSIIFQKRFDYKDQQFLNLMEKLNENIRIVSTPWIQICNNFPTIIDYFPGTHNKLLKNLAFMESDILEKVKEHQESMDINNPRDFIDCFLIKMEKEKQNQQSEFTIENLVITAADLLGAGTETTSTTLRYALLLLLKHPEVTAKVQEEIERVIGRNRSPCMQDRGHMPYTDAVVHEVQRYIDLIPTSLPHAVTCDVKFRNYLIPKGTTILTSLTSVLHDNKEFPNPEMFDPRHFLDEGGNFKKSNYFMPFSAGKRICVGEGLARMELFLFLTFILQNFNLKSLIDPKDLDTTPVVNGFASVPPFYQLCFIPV
CDK8, sequence (P49336 whole entry): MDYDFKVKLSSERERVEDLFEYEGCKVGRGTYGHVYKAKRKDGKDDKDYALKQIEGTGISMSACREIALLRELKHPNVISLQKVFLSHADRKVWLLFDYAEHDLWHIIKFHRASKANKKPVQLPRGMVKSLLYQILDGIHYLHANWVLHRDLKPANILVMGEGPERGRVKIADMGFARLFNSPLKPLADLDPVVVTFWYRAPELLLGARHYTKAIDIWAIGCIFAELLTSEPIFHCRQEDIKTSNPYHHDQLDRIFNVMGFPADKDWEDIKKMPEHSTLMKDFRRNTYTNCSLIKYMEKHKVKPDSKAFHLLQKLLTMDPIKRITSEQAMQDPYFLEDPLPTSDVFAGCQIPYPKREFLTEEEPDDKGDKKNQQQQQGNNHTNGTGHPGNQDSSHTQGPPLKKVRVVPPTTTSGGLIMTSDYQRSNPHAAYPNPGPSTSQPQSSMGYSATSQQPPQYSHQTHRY
CDK9, sequence (P50750 whole entry): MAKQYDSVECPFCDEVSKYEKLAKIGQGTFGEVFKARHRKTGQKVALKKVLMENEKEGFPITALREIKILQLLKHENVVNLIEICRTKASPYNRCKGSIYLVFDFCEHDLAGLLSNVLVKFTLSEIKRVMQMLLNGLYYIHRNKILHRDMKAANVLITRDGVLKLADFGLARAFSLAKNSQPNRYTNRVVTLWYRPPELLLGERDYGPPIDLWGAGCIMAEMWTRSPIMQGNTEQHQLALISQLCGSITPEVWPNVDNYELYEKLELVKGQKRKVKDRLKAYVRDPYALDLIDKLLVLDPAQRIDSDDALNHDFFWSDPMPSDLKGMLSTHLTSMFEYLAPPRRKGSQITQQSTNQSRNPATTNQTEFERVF
CYP 2C9, sequence (P11712 whole entry): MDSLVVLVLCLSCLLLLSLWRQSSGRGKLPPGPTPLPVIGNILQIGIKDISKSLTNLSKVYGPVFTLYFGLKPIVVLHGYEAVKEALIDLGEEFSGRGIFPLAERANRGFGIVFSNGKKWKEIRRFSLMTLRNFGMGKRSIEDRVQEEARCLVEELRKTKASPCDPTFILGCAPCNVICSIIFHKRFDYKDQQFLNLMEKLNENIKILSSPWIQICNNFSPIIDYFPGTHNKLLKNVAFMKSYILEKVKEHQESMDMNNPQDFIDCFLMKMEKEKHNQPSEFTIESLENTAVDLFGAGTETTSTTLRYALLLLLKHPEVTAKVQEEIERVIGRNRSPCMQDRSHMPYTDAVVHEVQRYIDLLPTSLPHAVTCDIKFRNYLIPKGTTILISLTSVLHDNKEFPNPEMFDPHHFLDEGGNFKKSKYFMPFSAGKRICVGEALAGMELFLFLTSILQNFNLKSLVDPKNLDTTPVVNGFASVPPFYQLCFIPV

Compound: NC(=O)c1cccc(-c2cnc3[nH]cc(-c4ccoc4)c3c2)c1 [Compound 12, 3-(3-(furan-3-yl)-1H-pyrrolo[2,3-b]pyridin-5-yl)benzamide]
- IC50 (CYP 2C9): > 50 µM
- IC50 (CDK9): 0.474 ± 0.0253 µM
- Temperature at which CDK8 was degraded almost completely (CDK8): 55 °C
- IC50 (molm-13): 0.02 ± 0.01 µM
- IC50 (CYP 2C19): > 50 µM
- efflux ratio ([1]; Caco-2): 1.3
- recovery ([1]; Caco-2, Caco-2, A→B, read-out: Recovery A→B): 107%
- recovery ([1]; Caco-2, Caco-2, B→A, read-out: Recovery B→A): 108%
- Papp A→B ([1]; Caco-2, A→B): 27 ×10⁻⁶ cm/s
- Papp B→A ([1]; Caco-2, B→A): 35.1 ×10⁻⁶ cm/s
- IC50 (MGC-803): 11.7 ± 1.93 µM
- Physiological phenomena such as anorexia, drowsiness, seizures and hyperactivity (C57BL/6 mice; 7 days): no obvious change
- Pathological section of heart, liver, spleen, lung and kidney (HE staining) (C57BL/6 mice; after 7 days): no diseased tissue
- IC50 (A375): 1 ± 0.23 µM
- IC50 (CYP3A4/5): > 5e-05 M
- IC50 (A549): 15.5 ± 2.78 µM
